Experimental data taken from patent EP4745137A1 (Gluetacs Therapeutics (Shanghai) Co., Ltd., priority 2023, dated 2025).

Columns and labels:
Assay type in all cases: cell-based
Details in all cases: 24 hours of compound treatment, 50 nM and 500 nM tested (concentration behind the class not stated)
WEE1 = target: T1, WEE1 (Homo sapiens, UniProt P30291+Q96SW2); assay: Western-blot assay of substrate protein degradation in hPBMCs, WEE1
T1 construct: endogenous in cells; host or cells: hPBMCs (Milecell Biotechnologies)

IKZF2 = target: T2, IKZF2 (Homo sapiens, UniProt Q96SW2+Q9UKS7); assay: Western-blot assay of substrate protein degradation in hPBMCs, IKZF2
T2 construct: endogenous in cells; host or cells: hPBMCs (Milecell Biotechnologies)
T2 sequence (Q9UKS7 whole entry): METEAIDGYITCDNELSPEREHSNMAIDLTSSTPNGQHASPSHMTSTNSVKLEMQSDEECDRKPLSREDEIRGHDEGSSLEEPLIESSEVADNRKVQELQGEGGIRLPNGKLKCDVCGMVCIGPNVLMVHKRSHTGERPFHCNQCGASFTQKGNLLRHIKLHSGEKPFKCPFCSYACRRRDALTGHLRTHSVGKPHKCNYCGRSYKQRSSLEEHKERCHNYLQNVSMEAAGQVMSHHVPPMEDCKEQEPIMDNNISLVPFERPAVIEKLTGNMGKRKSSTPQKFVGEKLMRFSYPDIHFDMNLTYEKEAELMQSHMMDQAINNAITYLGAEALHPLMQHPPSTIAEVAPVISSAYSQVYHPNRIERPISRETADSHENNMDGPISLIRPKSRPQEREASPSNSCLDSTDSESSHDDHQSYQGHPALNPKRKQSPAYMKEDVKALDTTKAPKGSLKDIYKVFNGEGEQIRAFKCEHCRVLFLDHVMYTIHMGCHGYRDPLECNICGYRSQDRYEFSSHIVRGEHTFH
T2 sequence (Q96SW2 whole entry): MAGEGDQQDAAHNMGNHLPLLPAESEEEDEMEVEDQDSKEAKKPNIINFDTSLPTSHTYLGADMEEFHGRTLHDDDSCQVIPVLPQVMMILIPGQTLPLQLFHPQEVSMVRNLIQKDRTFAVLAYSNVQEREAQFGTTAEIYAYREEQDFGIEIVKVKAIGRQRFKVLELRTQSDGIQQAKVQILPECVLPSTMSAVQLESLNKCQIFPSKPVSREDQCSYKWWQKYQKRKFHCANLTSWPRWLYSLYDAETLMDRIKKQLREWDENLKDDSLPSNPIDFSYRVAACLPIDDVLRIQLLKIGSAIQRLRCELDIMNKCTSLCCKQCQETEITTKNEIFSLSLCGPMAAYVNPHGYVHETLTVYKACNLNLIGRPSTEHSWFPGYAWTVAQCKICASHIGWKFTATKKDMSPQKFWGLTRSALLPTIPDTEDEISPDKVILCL
T2 sequence (Q16531 whole entry partner): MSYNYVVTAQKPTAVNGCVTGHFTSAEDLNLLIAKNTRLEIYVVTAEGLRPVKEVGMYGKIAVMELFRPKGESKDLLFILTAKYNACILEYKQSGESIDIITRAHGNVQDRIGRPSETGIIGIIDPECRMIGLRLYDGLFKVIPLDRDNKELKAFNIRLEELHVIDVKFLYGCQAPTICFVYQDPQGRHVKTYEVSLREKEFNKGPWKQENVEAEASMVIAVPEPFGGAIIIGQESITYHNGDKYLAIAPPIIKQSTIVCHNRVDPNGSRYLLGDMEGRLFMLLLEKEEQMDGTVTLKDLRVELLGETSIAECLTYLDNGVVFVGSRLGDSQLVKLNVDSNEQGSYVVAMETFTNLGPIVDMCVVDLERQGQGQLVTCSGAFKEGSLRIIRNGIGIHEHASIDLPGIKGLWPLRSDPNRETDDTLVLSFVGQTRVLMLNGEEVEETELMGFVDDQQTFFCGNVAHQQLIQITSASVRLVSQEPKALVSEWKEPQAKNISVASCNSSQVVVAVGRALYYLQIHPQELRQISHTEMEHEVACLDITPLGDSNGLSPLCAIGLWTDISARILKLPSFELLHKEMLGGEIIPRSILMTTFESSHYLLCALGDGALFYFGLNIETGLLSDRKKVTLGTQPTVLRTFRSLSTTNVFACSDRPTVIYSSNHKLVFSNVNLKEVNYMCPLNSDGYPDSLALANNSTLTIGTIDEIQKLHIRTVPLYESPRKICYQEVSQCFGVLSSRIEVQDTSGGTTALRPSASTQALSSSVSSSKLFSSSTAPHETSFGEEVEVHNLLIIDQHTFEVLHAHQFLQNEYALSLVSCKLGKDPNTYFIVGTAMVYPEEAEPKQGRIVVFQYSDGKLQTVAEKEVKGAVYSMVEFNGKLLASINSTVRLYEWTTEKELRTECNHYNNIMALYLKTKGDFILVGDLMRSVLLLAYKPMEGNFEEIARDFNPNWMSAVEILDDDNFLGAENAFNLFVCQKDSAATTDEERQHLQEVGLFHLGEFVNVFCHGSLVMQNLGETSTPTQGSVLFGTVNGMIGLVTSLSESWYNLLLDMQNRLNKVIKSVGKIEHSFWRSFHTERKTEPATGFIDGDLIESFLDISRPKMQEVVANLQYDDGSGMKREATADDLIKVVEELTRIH

IKZF1 = target: T3, IKZF1 (Homo sapiens, UniProt Q13422+Q96SW2); assay: Western-blot assay of substrate protein degradation in hPBMCs, IKZF1
T3 construct: endogenous in cells; host or cells: hPBMCs (Milecell Biotechnologies)
T3 sequence (Q13422 whole entry): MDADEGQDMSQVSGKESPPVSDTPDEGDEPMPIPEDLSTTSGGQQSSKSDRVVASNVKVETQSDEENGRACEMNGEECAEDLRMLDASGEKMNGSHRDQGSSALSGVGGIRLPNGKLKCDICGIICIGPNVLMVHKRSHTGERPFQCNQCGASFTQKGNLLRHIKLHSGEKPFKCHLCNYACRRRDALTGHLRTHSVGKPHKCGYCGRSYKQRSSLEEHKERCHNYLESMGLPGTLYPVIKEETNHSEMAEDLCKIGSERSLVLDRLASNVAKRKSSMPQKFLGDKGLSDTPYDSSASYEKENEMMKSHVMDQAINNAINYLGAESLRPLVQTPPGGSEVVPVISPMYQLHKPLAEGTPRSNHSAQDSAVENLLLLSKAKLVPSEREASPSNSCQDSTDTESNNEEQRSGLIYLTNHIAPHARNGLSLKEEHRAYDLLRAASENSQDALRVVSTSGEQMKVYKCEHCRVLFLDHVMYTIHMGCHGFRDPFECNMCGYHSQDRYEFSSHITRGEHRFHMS
T3 sequence (Q96SW2 whole entry): as the sequence (Q96SW2 whole entry) above
T3 sequence (Q16531 whole entry partner): as the sequence (Q16531 whole entry partner) above

IKZF3 = target: T4, IKZF3 (Homo sapiens, UniProt Q96SW2+Q9UKT9); assay: Western-blot assay of substrate protein degradation in hPBMCs, IKZF3
T4 construct: endogenous in cells; host or cells: hPBMCs (Milecell Biotechnologies)
T4 sequence (Q9UKT9 whole entry): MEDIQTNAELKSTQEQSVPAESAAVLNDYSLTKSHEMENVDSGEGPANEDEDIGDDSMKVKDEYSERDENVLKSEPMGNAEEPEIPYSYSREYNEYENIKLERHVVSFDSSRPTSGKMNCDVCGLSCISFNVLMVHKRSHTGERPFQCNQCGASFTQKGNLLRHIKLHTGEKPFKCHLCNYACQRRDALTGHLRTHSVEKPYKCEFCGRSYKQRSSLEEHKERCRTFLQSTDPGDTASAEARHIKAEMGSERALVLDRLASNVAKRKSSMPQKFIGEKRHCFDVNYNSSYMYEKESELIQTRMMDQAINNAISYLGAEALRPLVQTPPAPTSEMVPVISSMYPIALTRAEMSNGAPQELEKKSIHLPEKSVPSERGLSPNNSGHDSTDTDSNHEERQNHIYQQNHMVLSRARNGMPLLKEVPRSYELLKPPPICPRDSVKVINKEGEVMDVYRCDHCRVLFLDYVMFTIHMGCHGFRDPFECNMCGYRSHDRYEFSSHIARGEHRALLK
T4 sequence (Q96SW2 whole entry): as the sequence (Q96SW2 whole entry) above
T4 sequence (Q16531 whole entry partner): as the sequence (Q16531 whole entry partner) above

CK1α = target: T5, CK1α (Homo sapiens, UniProt P48729+Q96SW2); assay: Western-blot assay of substrate protein degradation in hPBMCs, CK1α
T5 construct: endogenous in cells; host or cells: hPBMCs (Milecell Biotechnologies)
T5 sequence (P48729 whole entry): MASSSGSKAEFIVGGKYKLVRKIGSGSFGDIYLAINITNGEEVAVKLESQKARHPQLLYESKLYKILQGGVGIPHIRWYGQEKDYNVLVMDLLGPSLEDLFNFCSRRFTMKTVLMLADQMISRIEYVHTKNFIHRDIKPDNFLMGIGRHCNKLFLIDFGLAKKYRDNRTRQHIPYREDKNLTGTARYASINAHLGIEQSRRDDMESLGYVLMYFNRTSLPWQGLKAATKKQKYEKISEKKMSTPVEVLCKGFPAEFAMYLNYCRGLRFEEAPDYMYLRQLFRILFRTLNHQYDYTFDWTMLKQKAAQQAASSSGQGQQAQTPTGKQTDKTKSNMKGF
T5 sequence (Q96SW2 whole entry): as the sequence (Q96SW2 whole entry) above
T5 sequence (Q16531 whole entry partner): as the sequence (Q16531 whole entry partner) above

GSPT1 = target: T6, GSPT1 (Homo sapiens, UniProt P15170+Q96SW2); assay: Western-blot assay of substrate protein degradation in hPBMCs, GSPT1
T6 construct: endogenous in cells; host or cells: hPBMCs (Milecell Biotechnologies)
T6 sequence (P15170 whole entry): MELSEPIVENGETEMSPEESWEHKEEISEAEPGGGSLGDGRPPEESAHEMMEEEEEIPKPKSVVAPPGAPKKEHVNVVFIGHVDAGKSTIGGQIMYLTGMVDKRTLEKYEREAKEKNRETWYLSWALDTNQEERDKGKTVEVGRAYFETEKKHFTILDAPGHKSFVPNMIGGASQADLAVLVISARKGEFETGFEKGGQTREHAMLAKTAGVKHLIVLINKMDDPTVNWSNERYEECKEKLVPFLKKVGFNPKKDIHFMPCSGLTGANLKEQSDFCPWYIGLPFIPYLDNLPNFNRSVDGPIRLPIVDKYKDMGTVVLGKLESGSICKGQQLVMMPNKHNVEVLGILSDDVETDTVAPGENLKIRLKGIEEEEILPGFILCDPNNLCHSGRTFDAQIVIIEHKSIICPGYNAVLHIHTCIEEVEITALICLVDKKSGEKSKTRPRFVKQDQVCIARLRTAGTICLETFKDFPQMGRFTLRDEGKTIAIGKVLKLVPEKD
T6 sequence (Q96SW2 whole entry): as the sequence (Q96SW2 whole entry) above
T6 sequence (Q16531 whole entry partner): as the sequence (Q16531 whole entry partner) above

Row | SMILES | Weel substrate protein remaining % (WEE1) | IKZF2 substrate protein remaining % (IKZF2) | IKZF 1 substrate protein remaining % (IKZF1) | IKZF3 substrate protein remaining % (IKZF3) | CK1a substrate protein remaining % (CK1α) | GSPT1 substrate protein remaining % (GSPT1)
1 | O=C1CCC(N2C(=O)c3ccc(CN4CCC(c5ccnc(F)c5F)CC4)cc3C2=O)C(=O)N1 (stereo not drawn) [GT-06613, 5-((4-(2,3-difluoropyridin-4-yl)piperidin-1-yl)methyl)-2-(2,6-dioxopiperidin-3-yl)isoindoline-1,3-dione] | B (80%< substrate protein remaining %≤ 100%) | B (80%< substrate protein remaining %≤ 100%) | B (80%< substrate protein remaining %≤ 100%) | B (80%< substrate protein remaining %≤ 100%) | B (80%< substrate protein remaining %≤ 100%) | A (0% ≤ substrate protein remaining % ≤ 80%)
2 | O=C1CCC(N2C(=O)c3ccc(CN4CCC(c5ccnc(Cl)c5Cl)CC4)cc3C2=O)C(=O)N1 (stereo not drawn) [GT-06615, 5-((4-(2,3-dichloropyridin-4-yl)piperidin-1-yl)methyl)-2-(2,6-dioxopiperidin-3-yl)isoindoline-1,3-dione] | A (0% ≤ substrate protein remaining % ≤ 80%) | B (80%< substrate protein remaining %≤ 100%) | B (80%< substrate protein remaining %≤ 100%) | A (0% ≤ substrate protein remaining % ≤ 80%) | A (0% ≤ substrate protein remaining % ≤ 80%) | A (0% ≤ substrate protein remaining % ≤ 80%)
3 | O=C1CCC(N2C(=O)c3ccc(CN4CCN(c5ccnc(Cl)c5)CC4)cc3C2=O)C(=O)N1 (stereo not drawn) [GT-06619, 5-((4-(2-chloropyridin-4-yl)piperazin-1-yl)methyl)-2-(2,6-dioxopiperidin-3-yl)isoindoline-1,3-dione] | B (80%< substrate protein remaining %≤ 100%) | B (80%< substrate protein remaining %≤ 100%) | B (80%< substrate protein remaining %≤ 100%) | A (0% ≤ substrate protein remaining % ≤ 80%) | B (80%< substrate protein remaining %≤ 100%) | A (0% ≤ substrate protein remaining % ≤ 80%)
4 | O=C1CCC(N2C(=O)c3ccc(CN4CCC(c5noc6ccccc56)CC4)cc3C2=O)C(=O)N1 (stereo not drawn) [GT-06627, 5-((4-(benzo[d]isoxazol-3-yl)piperidin-1-yl)methyl)-2-(2,6-dioxopiperidin-3-yl)isoindoline-1,3-dione] | B (80%< substrate protein remaining %≤ 100%) | B (80%< substrate protein remaining %≤ 100%) | B (80%< substrate protein remaining %≤ 100%) | B (80%< substrate protein remaining %≤ 100%) | B (80%< substrate protein remaining %≤ 100%) | A (0% ≤ substrate protein remaining % ≤ 80%)
5 | O=C1CCC(N2C(=O)c3ccc(CN4CCC(c5ccon5)CC4)cc3C2=O)C(=O)N1 (stereo not drawn) [GT-06628, 2-(2,6-dioxopiperidin-3-yl)-5-((4-(isoxazol-3-yl)piperidin-1-yl)methyl)isoindoline-1,3-dione] | B (80%< substrate protein remaining %≤ 100%) | B (80%< substrate protein remaining %≤ 100%) | B (80%< substrate protein remaining %≤ 100%) | B (80%< substrate protein remaining %≤ 100%) | B (80%< substrate protein remaining %≤ 100%) | A (0% ≤ substrate protein remaining % ≤ 80%)
6 | O=C1CCC(N2C(=O)c3ccc(CN4CCN(c5noc6cc(F)ccc56)CC4)cc3C2=O)C(=O)N1 (stereo not drawn) [GT-06629, 2-(2,6-dioxopiperidin-3-yl)-5-((4-(6-fluorobenzo[d]isoxazol-3-yl)piperazin-1-yl)methyl)isoindoline-1,3-dione] | A (0% ≤ substrate protein remaining % ≤ 80%) | A (0% ≤ substrate protein remaining % ≤ 80%) | B (80%< substrate protein remaining %≤ 100%) | B (80%< substrate protein remaining %≤ 100%) | A (0% ≤ substrate protein remaining % ≤ 80%) | A (0% ≤ substrate protein remaining % ≤ 80%)
7 | O=C1CCC(N2C(=O)c3ccc(CN4CCN(c5noc6ccncc56)CC4)cc3C2=O)C(=O)N1 (stereo not drawn) [GT-06630, 2-(2,6-dioxopiperidin-3-yl)-5-((4-(isoxazolo[4,5-c]pyridin-3-yl)piperazin-1-yl)methyl)isoindoline-1,3-dione] | A (0% ≤ substrate protein remaining % ≤ 80%) | A (0% ≤ substrate protein remaining % ≤ 80%) | B (80%< substrate protein remaining %≤ 100%) | B (80%< substrate protein remaining %≤ 100%) | A (0% ≤ substrate protein remaining % ≤ 80%) | A (0% ≤ substrate protein remaining % ≤ 80%)
8 | Cc1nc(C2CCN(Cc3ccc4c(c3)C(=O)N(C3CCC(=O)NC3=O)C4=O)CC2)c2ccsc2n1 (stereo not drawn) [GT-06647, 2-(2,6-dioxopiperidin-3-yl)-5-((4-(2-methylthieno[2,3-d]pyrimidin-4-yl)piperidin-1-yl)methyl)isoindoline-1,3-dione] | A (0% ≤ substrate protein remaining % ≤ 80%) | A (0% ≤ substrate protein remaining % ≤ 80%) | B (80%< substrate protein remaining %≤ 100%) | B (80%< substrate protein remaining %≤ 100%) | A (0% ≤ substrate protein remaining % ≤ 80%) | A (0% ≤ substrate protein remaining % ≤ 80%)
9 | Cc1nc(C2CCN(Cc3ccc4c(c3)C(=O)N(C3CCC(=O)NC3=O)C4=O)CC2)c2c3c(sc2n1)CCCC3 (stereo not drawn) [GT-06648, 2-(2,6-dioxopiperidin-3-yl)-5-((4-(2-methyl-5,6,7,8-tetrahydrobenzo[4,5]thieno[2,3-d]pyrimidin-4-yl)piperidin-1-yl)methyl)isoindoline-1,3-dione] | A (0% ≤ substrate protein remaining % ≤ 80%) | A (0% ≤ substrate protein remaining % ≤ 80%) | B (80%< substrate protein remaining %≤ 100%) | B (80%< substrate protein remaining %≤ 100%) | A (0% ≤ substrate protein remaining % ≤ 80%) | A (0% ≤ substrate protein remaining % ≤ 80%)
10 | Cc1csc2ncnc(C3=CCN(Cc4ccc5c(c4)C(=O)N(C4CCC(=O)NC4=O)C5=O)CC3)c12 (stereo not drawn) [GT-06654, 2-(2,6-dioxopiperidin-3-yl)-5-((4-(5-methylthieno[2,3-d]pyrimidin-4-yl)-3,6-dihydropyridin-1(2H)-yl)methyl)isoindoline-1,3-dione] | A (0% ≤ substrate protein remaining % ≤ 80%) | B (80%< substrate protein remaining %≤ 100%) | B (80%< substrate protein remaining %≤ 100%) | B (80%< substrate protein remaining %≤ 100%) | B (80%< substrate protein remaining %≤ 100%) | A (0% ≤ substrate protein remaining % ≤ 80%)
